Laboratory results as given in PubChem BioAssay AID248 (DTP/NCI, 2004).
Values joined by “and” are separate entries in the source; they are usually repeats but may differ in a detail not shown here. Equal values may be shown once. Inconclusive results and toxic doses are left out. Cut-off read from the data, not from the text of the source: active = T/C of 150% or more; inactive = T/C below 125%.

Tested on: L1210 leukemia ip in BDF1 mice, survival T/C
Assay: NCI In Vivo Anticancer Drug Screen. Data for tumor model L1210 Leukemia (intraperitoneal) in B6D2F1 (BDF1) mice
Conditions: endpoint: mean survival time, higher = longer survival
Procedure, shortened: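 Tumor was transplanted into mice, which were then dosed with test compound or vehicle alone. Survival was recorded for each group, and the treated figure was expressed relative to the control figure.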

[1] = dose: 100.0 mg/kg/injection, schedule: Q01DX009 (ip), vehicle: saline with Tween-80
[2] = dose: 100.0 mg/kg/injection, schedule: Q04DX003 (ip), vehicle: saline with Tween-80
[3] = dose: 200.0 mg/kg/injection, schedule: Q01DX009 (ip), vehicle: saline with Tween-80
[4] = dose: 200.0 mg/kg/injection, schedule: Q04DX003 (ip), vehicle: saline with Tween-80
[5] = dose: 400.0 mg/kg/injection, schedule: Q04DX003 (ip), vehicle: saline with Tween-80
[6] = dose: 100.0 mg/kg/injection, schedule: Q04DX003 (ip), vehicle: saline
[7] = dose: 200.0 mg/kg/injection, schedule: Q04DX003 (ip), vehicle: saline
[8] = dose: 400.0 mg/kg/injection, schedule: Q04DX003 (ip), vehicle: saline
[9] = dose: 100.0 mg/kg/injection, schedule: Q01DX001 (ip), vehicle: saline
[10] = dose: 100.0 mg/kg/injection, schedule: Q01DX009 (ip), vehicle: saline

Measured: T/C

O=S(=O)(ON=C(c1ccc(Cl)cc1)c1ccc(Cl)cc1)c1ccccc1
inactive: dose: 100.0 mg/kg/injection, schedule: Q01DX009 (ip), vehicle: carboxymethylcellulose (CMC) 98 % of control | dose: 100.0 mg/kg/injection, schedule: Q04DX002 (ip), vehicle: carboxymethylcellulose (CMC) 101 % of control and 92 % of control | dose: 100.0 mg/kg/injection, schedule: Q04DX003 (ip), vehicle: carboxymethylcellulose (CMC) 106 % of control | dose: 200.0 mg/kg/injection, schedule: Q01DX009 (ip), vehicle: carboxymethylcellulose (CMC) 95 % of control and 92 % of control | dose: 200.0 mg/kg/injection, schedule: Q04DX002 (ip), vehicle: carboxymethylcellulose (CMC) 102 % of control and 111 % of control | dose: 200.0 mg/kg/injection, schedule: Q04DX003 (ip), vehicle: carboxymethylcellulose (CMC) 93 % of control | dose: 400.0 mg/kg/injection, schedule: Q01DX009 (ip), vehicle: carboxymethylcellulose (CMC) 95 % of control and 101 % of control | dose: 400.0 mg/kg/injection, schedule: Q04DX002 (ip), vehicle: carboxymethylcellulose (CMC) 95 % of control and 101 % of control | dose: 400.0 mg/kg/injection, schedule: Q04DX003 (ip), vehicle: carboxymethylcellulose (CMC) 93 % of control

O=C(Nc1ccc(Cl)cc1[N+](=O)[O-])Nc1ccccc1C(F)(F)F
inactive: dose: 100.0 mg/kg/injection, schedule: Q01DX001 (ip), vehicle: saline with Tween-80 93 % of control | [1] 94 % of control and 90 % of control | dose: 100.0 mg/kg/injection, schedule: Q04DX002 (ip), vehicle: saline with Tween-80 95 % of control and 96 % of control | [2] 97 % of control | dose: 200.0 mg/kg/injection, schedule: Q01DX001 (ip), vehicle: saline with Tween-80 90 % of control | [3] 100 % of control and 92 % of control | dose: 200.0 mg/kg/injection, schedule: Q04DX002 (ip), vehicle: saline with Tween-80 93 % of control and 98 % of control | [4] 88 % of control | dose: 400.0 mg/kg/injection, schedule: Q01DX001 (ip), vehicle: saline with Tween-80 101 % of control | dose: 400.0 mg/kg/injection, schedule: Q01DX009 (ip), vehicle: saline with Tween-80 94 % of control and 87 % of control | dose: 400.0 mg/kg/injection, schedule: Q04DX002 (ip), vehicle: saline with Tween-80 91 % of control | [5] 88 % of control

CN(CCCCC(=O)NC(CCC(=O)O)C(=O)O)Cc1cnc2nc(N)nc(N)c2n1 (centres undefined)
inactive: dose: 20.0 mg/kg/injection, schedule: Q01DX009 (ip), vehicle: saline 94 % of control | dose: 40.0 mg/kg/injection, schedule: Q01DX009 (ip), vehicle: saline 112 % of control | dose: 80.0 mg/kg/injection, schedule: Q01DX009 (ip), vehicle: saline 94 % of control

COc1ccc(CCN)cc1OC
inactive: dose: 100.0 mg/kg/injection, schedule: Q04DX002 (ip), vehicle: saline 106 % of control | dose: 200.0 mg/kg/injection, schedule: Q04DX002 (ip), vehicle: saline 100 % of control | dose: 400.0 mg/kg/injection, schedule: Q04DX002 (ip), vehicle: saline 100 % of control

CC1(CCC(=O)O)CCCCC1=O (centres undefined)
inactive: [6] 96 % of control | [7] 96 % of control | [8] 112 % of control

O=C(C1C2C=CC(CC2)C1C(=O)N1CCCCC1)N1CCCCC1 (centres undefined)
inactive: [2] 96 % of control | [4] 100 % of control | [5] 96 % of control

CCCCCCCCCCCCCC(=O)OCC(OC(=O)CCCCCCCCCCCCC)C(OC(=O)CCCCCCCCCCCCC)C(OC(=O)CCCCCCCCCCCCC)C(C=O)OC(=O)CCCCCCCCCCCCC (centres undefined)
inactive: dose: 100.0 mg/kg/injection, schedule: Q01DX001 (ip), vehicle: other 90 % of control | dose: 200.0 mg/kg/injection, schedule: Q01DX001 (ip), vehicle: other 97 % of control | dose: 400.0 mg/kg/injection, schedule: Q01DX001 (ip), vehicle: other 92 % of control

OC12CC3CC(CC(C3)C1)C2
inactive: [9] 95 % of control | dose: 200.0 mg/kg/injection, schedule: Q01DX001 (ip), vehicle: saline 106 % of control | dose: 400.0 mg/kg/injection, schedule: Q01DX001 (ip), vehicle: saline 103 % of control

O=C1C(N2CC2)=C(N2CC2)C(=O)C(N2CC2)=C1N1CC1
inactive: dose: 0.12 mg/kg/injection, schedule: Q01DX001 (ip), vehicle: saline 112 % of control

Cc1cccc([N+](=O)[O-])n1
inactive: dose: 25.0 mg/kg/injection, schedule: Q01DX009 (ip), vehicle: saline with Tween-80 94 % of control | dose: 50.0 mg/kg/injection, schedule: Q01DX009 (ip), vehicle: saline with Tween-80 94 % of control | [2] 89 % of control

O=C(Nc1cccc2ccccc12)OCCCBr
inactive: [1] 90 % of control | [3] 90 % of control

CCOC(=O)CNCC(O)C(Cl)(Cl)Cl (centres undefined)
inactive: [1] 92 % of control | [3] 86 % of control

O=C1OCCN1S(=O)(=O)c1ccc([N+](=O)[O-])cc1
inactive: dose: 3.12 mg/kg/injection, schedule: Q01DX009 (ip), vehicle: Klucel (hydroxypropylcellulose) (HPC) 94 % of control | dose: 6.25 mg/kg/injection, schedule: Q01DX009 (ip), vehicle: Klucel (hydroxypropylcellulose) (HPC) 93 % of control | dose: 12.5 mg/kg/injection, schedule: Q01DX009 (ip), vehicle: Klucel (hydroxypropylcellulose) (HPC) 94 % of control | dose: 100.0 mg/kg/injection, schedule: Q01DX001 (ip), vehicle: Klucel (hydroxypropylcellulose) (HPC) 86 % of control | dose: 100.0 mg/kg/injection, schedule: Q04DX003 (ip), vehicle: Klucel (hydroxypropylcellulose) (HPC) 97 % of control | dose: 200.0 mg/kg/injection, schedule: Q01DX001 (ip), vehicle: Klucel (hydroxypropylcellulose) (HPC) 91 % of control | dose: 200.0 mg/kg/injection, schedule: Q04DX003 (ip), vehicle: Klucel (hydroxypropylcellulose) (HPC) 92 % of control | dose: 400.0 mg/kg/injection, schedule: Q04DX003 (ip), vehicle: Klucel (hydroxypropylcellulose) (HPC) 88 % of control

C=CS(=O)Cc1ccccc1 (centres undefined)
inactive: dose: 12.5 mg/kg/injection, schedule: Q04DX002 (ip), vehicle: saline 112 % of control | dose: 25.0 mg/kg/injection, schedule: Q04DX002 (ip), vehicle: saline 94 % of control | dose: 50.0 mg/kg/injection, schedule: Q04DX002 (ip), vehicle: saline 98 % of control

N#[N+]c1ccccc1-c1nc(N)nc(N)n1
inactive: dose: 25.0 mg/kg/injection, schedule: Q01DX009 (ip), vehicle: saline 110 % of control | dose: 25.0 mg/kg/injection, schedule: Q04DX003 (ip), vehicle: saline 113 % of control | dose: 50.0 mg/kg/injection, schedule: Q01DX009 (ip), vehicle: saline 100 % of control | dose: 50.0 mg/kg/injection, schedule: Q04DX003 (ip), vehicle: saline 103 % of control | [9] 99 % of control | [10] 92 % of control | [6] 96 % of control

O=C(O)CCC1CCC(=O)NC1=O (centres undefined)
inactive: dose: 25.0 mg/kg/injection, schedule: Q04DX002 (ip), vehicle: Klucel (hydroxypropylcellulose) (HPC) 95 % of control | dose: 50.0 mg/kg/injection, schedule: Q04DX002 (ip), vehicle: Klucel (hydroxypropylcellulose) (HPC) 101 % of control | dose: 100.0 mg/kg/injection, schedule: Q04DX002 (ip), vehicle: Klucel (hydroxypropylcellulose) (HPC) 89 % of control | dose: 200.0 mg/kg/injection, schedule: Q04DX002 (ip), vehicle: Klucel (hydroxypropylcellulose) (HPC) 103 % of control | dose: 400.0 mg/kg/injection, schedule: Q04DX002 (ip), vehicle: Klucel (hydroxypropylcellulose) (HPC) 88 % of control

CC(NCCO)C(O)c1ccccc1 (centres undefined)
inactive: [10] 94 % of control | [6] 95 % of control | dose: 200.0 mg/kg/injection, schedule: Q01DX009 (ip), vehicle: saline 94 % of control | [7] 104 % of control | dose: 400.0 mg/kg/injection, schedule: Q01DX009 (ip), vehicle: saline 103 % of control | [8] 97 % of control

Nn1c(=S)[nH][nH]c1=S
inactive: [6] 97 % of control | [7] 103 % of control | [8] 98 % of control
